In patent US7776862B2, “Pyridyl and phenyl substituted piperazine-piperidines with CXCR3 antagonist activity” (Schering Corporation, priority 2005, dated 2010):

Target: T1, human CXCR3 (N-delta 4) (Homo sapiens, UniProt P49682)
T1 construct: CD8 leader; Flag tag; expressed in transfected cells; membranes used
T1 sequence (P49682 5-368 limits assumed): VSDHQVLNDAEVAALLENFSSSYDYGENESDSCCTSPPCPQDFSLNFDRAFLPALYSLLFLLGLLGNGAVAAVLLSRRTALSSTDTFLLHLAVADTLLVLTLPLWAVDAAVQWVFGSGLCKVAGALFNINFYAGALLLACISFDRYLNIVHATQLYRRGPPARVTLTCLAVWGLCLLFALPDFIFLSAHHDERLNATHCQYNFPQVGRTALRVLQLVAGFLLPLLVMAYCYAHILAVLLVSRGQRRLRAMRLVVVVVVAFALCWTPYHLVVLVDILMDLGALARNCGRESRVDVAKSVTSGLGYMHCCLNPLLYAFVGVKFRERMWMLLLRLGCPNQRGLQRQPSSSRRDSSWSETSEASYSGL
Test: Human CXCR3 (N-delta 4) scintillation proximity assay (SPA), [125I] IP-10 binding
Conditions: IC50 rating; Ba/F3-hCXCR3 (N-delta 4) membranes, 25 pM [125I] IP-10
In short: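 IP-10 and compound titrations added together. The receptor source was SPA beads bearing membranes from Ba/F3 cells transfected with human CXCR3 (N-delta 4) carrying a CD8 leader and Flag tag.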

Structure (SMILES) | IC50 [nM]
CC[C@H]1CN(c2c(Cl)cc(C(=O)OC)c[n+]2[O-])CCN1C1CCN(Cc2ccc(Cl)cc2F)CC1 [compound 438] | > 100
O=C(NCc1ccc(Br)cc1)c1cnc(N2CCN(C3CCN(Cc4ccc([N+](=O)[O-])cc4)CC3)CC2)c(Cl)c1 [compound 131] | 25 to 100
CC[C@H]1CN(c2ncc(CN(C3CC3)S(C)(=O)=O)cc2Cl)CCN1C1CCN(Cc2ccc(Cl)cc2F)CC1 [compound 414] | 25 to 100
CC[C@H]1CN(c2ncc(CO)cc2Cl)CCN1C1CCN(C(=O)c2ccccc2)CC1 [compound 448] | > 100
N#Cc1ccc(C(=O)N2CCC(N3CCN(c4ncc(C(=O)NCc5ccc(Cl)c(Cl)c5)cc4Cl)CC3)CC2)cc1 [compound 64] | > 100
CC[C@H]1CN(c2ncc(CNC(=O)NCC(F)(F)F)cc2Cl)CCN1C1CCN(Cc2ccc(Br)cc2F)CC1 [compound 371] | < 25
C[C@H]1CN(c2ncc(C(=O)NCc3ccc(F)c(F)c3)cc2Cl)CCN1C1CCN(C(=O)c2ccc(Cl)cc2)CC1 [compound 307] | 25 to 100
O=C(NCc1ccc(F)cc1F)c1cnc(N2CCN(C3CCN(Cc4ccc(Cl)c(F)c4)CC3)CC2)c(Cl)c1 [compound 127] | 25 to 100
CCNC(=O)c1cc(Cl)c(N2CCN(C3CCN(Cc4ccc(Cl)cc4F)CC3)[C@@H](CC)C2)[n+]([O-])c1 [compound 229] | < 25
O=C(NCCOc1ccccc1)c1cnc(N2CCN(C3CCN(Cc4ccc(Cl)cc4Cl)CC3)CC2)c(Cl)c1 [compound 38] | > 100
CC1(N2CCN(c3ncc(C(=O)NCc4ccc(Cl)c(Cl)c4)cc3Cl)CC2)CCN(Cc2ccc(Cl)cc2)CC1 [compound 206] | 25 to 100
CC[C@H]1CN(c2ncc(CNc3nccs3)cc2Cl)CCN1C1CCN(Cc2ccc(Cl)cc2F)CC1 [compound 407] | < 25
O=C(NCc1ccc(Cl)c(Cl)c1)c1cnc(N2CCN(C3CCN(Cc4ccc(Br)cc4)CC3)CC2)c(Cl)c1 [compound 289] | 25 to 100
COc1ccc(CN2CCC(N3CCN(c4ncc(C(=O)NCc5ccc(C(F)(F)F)cc5)cc4Cl)CC3)CC2)cc1 [compound 42] | > 100
CC[C@H]1CN(c2ncc(CNC(=O)N(C(=O)NC3CC3)C3CC3)cc2Cl)CCN1C1CCN(Cc2ccc(Br)cc2F)CC1 [compound 408] | < 25
CCNC(=O)c1cnc(N2C[C@H](CC)N(C3CCN(Cc4ccc(Cl)cc4F)CC3)C[C@H]2C)c(Cl)c1 [compound 217] | < 25
CC[C@H]1CN(c2ncc(C(=N)N)cc2Cl)CCN1C1CCN(C(=O)c2ccc(Cl)nc2N)CC1 [compound 442] | > 100
CNC(=O)c1cnc(N2CCN(C3CCN(C(C)c4ccc(Cl)cc4)CC3)[C@@H](C)C2)c(Cl)c1 (stereo partly drawn) [compound 243] | < 25
CC[C@H]1CN(c2ncc(CN/C(N)=N\C#N)cc2Cl)CCN1C1CCN(Cc2ccc(Cl)cc2F)CC1 [compound 389] | < 25
O=C(NCc1ccc(Cl)cc1)c1cnc(N2CCN(C3CCN(Cc4ccc(Cl)c(F)c4)CC3)CC2)c(Cl)c1 [compound 161] | 25 to 100
O=C(NCc1ccc(Cl)cc1)c1cnc(N2CCN(C3CCN(Cc4ccc(Br)cc4F)CC3)CC2)c(Cl)c1 [compound 48] | > 100

Structure (SMILES) | IC50 [nM]
CCNC(=O)c1cnc(N2CCN(C3CCN([C@@H](CC)c4ccc(Cl)cc4)CC3)[C@@H](C)C2)c(Cl)c1 [compound 344] | > 100
CNC(=O)c1cnc(N2CCN(C3CCN(Cc4ccc(Cl)cc4)CC3)[C@@H](C)C2)c(Br)c1 [compound 237] | < 25
O=C(NCc1ccc(Cl)cc1)c1cnc(N2CCN(C3CCN(Cc4ccc([N+](=O)[O-])cc4)CC3)CC2)c(Cl)c1 [compound 153] | 25 to 100
CC[C@H]1CN(c2ncc(CNS(C)(=O)=O)cc2Cl)CCN1C1CCN(Cc2ccc(Br)cc2F)CC1 [compound 378] | < 25
CC(c1ccc(Cl)cc1)N1CCC(N2CCN(c3ncc(C(=O)NCc4ccc(Cl)c(Cl)c4)cc3Cl)CC2)CC1 (stereo not drawn) [compound 45] | > 100
CNC(=O)c1cnc(N2CCN(C3CCN(Cc4ccc(Cl)cc4)C(C)C3)[C@@H](C)C2)c(Cl)c1 (stereo partly drawn) [compound 252] | < 25
O=C(NCc1ccc(F)c(F)c1)c1cnc(N2CCN(C3CCN(Cc4ccc(F)cc4F)CC3)CC2)c(Cl)c1 [compound 96] | 25 to 100
C=CCNc1c(C(N)=O)cnc(N2CCN(C3CCN(Cc4ccc(Cl)cc4F)CC3)[C@@H](CC)C2)c1Cl [compound 357] | > 100
O=C(NCc1ccc(F)cc1F)c1cnc(N2CCN(C3CCN(Cc4ccc(F)cc4F)CC3)CC2)c(Cl)c1 [compound 41] | > 100
CC[C@H]1CN(c2ncc(C(N)=O)cc2Cl)CCN1C1CCN(Cc2ccc(Cl)cc2N2CCOC2=O)CC1 [compound 460] | 25 to 100
O=C(NCc1ccc(F)cc1)c1cnc(N2CCN(C3CCN(Cc4ccc(F)cc4F)CC3)CC2)c(Cl)c1 [compound 34] | > 100
O=C(NCc1cccc(F)c1)c1cnc(N2CCN(C3CCN(Cc4ccc(Cl)cc4Cl)CC3)CC2)c(Cl)c1 [compound 1] | > 100
COc1ccc(CN2CCC(N3CCN(c4ncc(C(=O)NCc5ccc(Cl)c(Cl)c5)cc4Cl)CC3)CC2)cc1 [compound 124] | 25 to 100
O=C(NCc1ccc(F)c(Cl)c1)c1cnc(N2CCN(C3CCN(Cc4ccc(F)cc4F)CC3)CC2)c(Cl)c1 [compound 102] | 25 to 100
O=C(NCc1ccc(Cl)cc1)c1cnc(N2CCN(C3CCN(Cc4ccc(F)c(F)c4)CC3)CC2)c(Cl)c1 [compound 157] | 25 to 100
O=C(NCc1ccccc1)c1cnc(N2CCN(C3CCN(Cc4ccc(F)c(F)c4)CC3)CC2)c(Cl)c1 [compound 53] | > 100
CC[C@H]1CN(c2ncc(C(=O)N=C(N)N)cc2Cl)CCN1C1CCN(Cc2ccc(Br)cc2F)CC1 [compound 350] | > 100
O=C(NC1CCCC1)c1cnc(N2CCN(C3CCN(Cc4ccc([N+](=O)[O-])cc4)CC3)CC2)c(Cl)c1 [compound 18] | > 100
O=C(NCc1cccc(F)c1)c1cnc(N2CCN(C3CCN(Cc4ccc(Cl)cc4)CC3)CC2)c(Cl)c1 [compound 95] | 25 to 100
N#Cc1ccc(CN2CCC(N3CCN(c4ncc(C(=O)NCc5ccc(C(F)(F)F)cc5)cc4Cl)CC3)CC2)cc1 [compound 336] | > 100
COCCNC(=O)c1cnc(N2CCN(C3CCN(Cc4ccc(Cl)cc4)CC3)[C@@H](CC(C)C)C2)c(Cl)c1 [compound 195] | > 100

Structure (SMILES) | IC50 [nM]
O=C(NCc1ccc(C(F)(F)F)cc1)c1cnc(N2CCN(C3CCN(Cc4ccc(Br)cc4)CC3)CC2)c(Cl)c1 [compound 31] | > 100
CNC(=O)c1cnc(N2CCN(C3CCN(Cc4c(F)cc(F)cc4F)CC3)[C@@H](C)C2)c(Cl)c1 [compound 341] | > 100
CNC(=O)c1cnc(N2CCN(C3CCN([C@H]4CCc5cc(Cl)ccc54)CC3)[C@@H](C)C2)c(Cl)c1 [compound 278] | 25 to 100
CCNC(=O)c1cnc(N2CCN(C3CCN([C@H](CC)c4ccc(Cl)cc4)CC3)[C@@H](C)C2)c(Cl)c1 [compound 330] | > 100
CNC(=O)c1cnc(N2CCN(C3CCN(Cc4ccc(Br)cc4F)CC3)[C@@H](C)C2)c(Cl)c1 [compound 240] | < 25
CC[C@H]1CN(c2ncc(C(=O)OC)cc2Cl)CCN1C1CCN(Cc2ccc(F)cc2C(F)(F)F)CC1 [compound 447] | > 100
O=C(NCc1cc(Cl)cc(Cl)c1)c1cnc(N2CCN(C3CCN(Cc4ccc(F)c(F)c4)CC3)CC2)c(Cl)c1 [compound 78] | > 100
O=C(NCc1ccc(Cl)c(Cl)c1)c1ccc(N2CCN(C3CCN(Cc4ccc(Cl)cc4)CC3)CC2)c(Cl)c1 [compound 17] | > 100
CNC(=O)c1cnc(N2CCN(C3CCN([C@@H](C)c4ccc(Cl)cc4)CC3)[C@@H](C)C2)c(Cl)c1 [compound 328] | > 100
CC1(C)C2CCC(CNC(=O)c3cnc(N4CCN(C5CCN(Cc6ccc(Cl)cc6)CC5)CC4)c(Br)c3)C1C2 (stereo not drawn) [compound 9] | > 100
CCNC(=O)c1cnc(N2CCN(C3CCN(C(=O)c4ccc(C#N)cc4)CC3)[C@@H](CC)C2)c(Cl)c1 [compound 269] | 25 to 100
CC[C@H]1CN(c2ncc(CNC(=O)NCC(F)(F)F)cc2Cl)CCN1C1CCN(C(=O)c2ccc(Br)cc2)CC1 [compound 396] | < 25
O=C(NCc1ccc(Cl)cc1F)c1cnc(N2CCN(C3CCN(Cc4ccc(F)c(F)c4)CC3)CC2)c(Cl)c1 [compound 140] | 25 to 100
O=C(NCc1ccc(Cl)cc1F)c1cnc(N2CCN(C3CCN(Cc4ccc(Br)cc4)CC3)CC2)c(Cl)c1 [compound 105] | 25 to 100
COc1ccc(CN2CCC(N3CCN(c4ncc(C(=O)NCc5ccc(Cl)cc5F)cc4Cl)CC3)CC2)cc1 [compound 111] | 25 to 100
COc1ccc(CN2CCC(N3CCN(c4ncc(C(=O)NCc5ccc(C(F)(F)F)cc5)cc4Br)CC3)CC2)cc1 [compound 322] | 25 to 100
C[C@H]1CN(c2ncc(C(=O)NCc3ccc(Cl)c(Cl)c3)cc2Cl)CCN1C1CCN(Cc2ccc(C#N)cc2)CC1 [compound 230] | < 25
CC[C@H]1CN(c2ncc(C(C)(C)O)cc2Cl)CCN1C1CCN(Cc2ccc(Cl)cc2F)CC1 [compound 446] | > 100
O=C(Nc1ccc(Cl)cn1)c1cnc(N2CCN(C3CCN(Cc4ccc(Cl)cc4)CC3)CC2)c(Cl)c1 [compound 353] | > 100
N#Cc1ccc(C(=O)N2CCC(N3CCN(c4ncc(C(=O)NCc5ccc(Cl)cc5)cc4Cl)CC3)CC2)cc1 [compound 101] | 25 to 100
N#Cc1ccc(CN2CCC(N3CCN(c4ncc(C(=O)NCc5ccc(F)c(F)c5)cc4Br)CC3)CC2)cc1 [compound 277] | 25 to 100
